Experiment [1] addresses T1, NLRP3 (Homo sapiens, UniProt Q96P20). As to the kind of experiment: Human whole blood IL1β release assay (LPS + nigericin, AlphaLisa IL-1β; HWB IC50). In kind it is cell-based. Further details: Human whole blood in Li-heparin tubes was obtained from healthy donors from a volunteer donor panel; from tissue; host or cells: human whole blood from healthy donors. The settings on record: IL-1β release. The method, boiled down:
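Donor Li-heparin whole blood primed with 1 μg/ml LPS, given compound (8-point half-log series, 10 μM top; DMSO 0.1% final) for 3 h at 37 °C, then nigericin 10 μM final for 1 h. Supernatant IL-1β measured by AlphaLisa; IC50 from 4-parameter variable-slope fit.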

Experiment [2] addresses T1, NLRP3. Description: THP-1 cells pyroptosis assay (LPS + nigericin, resazurin readout; THP IC50). Further details: Seed THP-1 cells (25,000 cells/well) containing 1.0 μg/ml LPS in 40 μl of RPMI medium; host or cells: THP-1 cells. In kind it is cell-based. The method, boiled down:
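Human THP-1 cells, 25,000/well in serum-free RPMI with 1 μg/ml LPS, treated 3 hrs at 37° C with compound (8-point half-log, 10 μM top, 0.1% DMSO), then 5 μM nigericin 1 hr. Viability by 100 μM resazurin fluorescence after 1-2 hrs; IC50 by 4-parameter fit.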
On the technique in general: The colour change of resazurin is a common sign of viable cells or microbes.

The term IC50 denotes the midpoint of a concentration-inhibition curve.

Structures are written as SMILES. Where a name gives a salt, the structure may show the parent alone.

T1 sequence (Q96P20 whole entry): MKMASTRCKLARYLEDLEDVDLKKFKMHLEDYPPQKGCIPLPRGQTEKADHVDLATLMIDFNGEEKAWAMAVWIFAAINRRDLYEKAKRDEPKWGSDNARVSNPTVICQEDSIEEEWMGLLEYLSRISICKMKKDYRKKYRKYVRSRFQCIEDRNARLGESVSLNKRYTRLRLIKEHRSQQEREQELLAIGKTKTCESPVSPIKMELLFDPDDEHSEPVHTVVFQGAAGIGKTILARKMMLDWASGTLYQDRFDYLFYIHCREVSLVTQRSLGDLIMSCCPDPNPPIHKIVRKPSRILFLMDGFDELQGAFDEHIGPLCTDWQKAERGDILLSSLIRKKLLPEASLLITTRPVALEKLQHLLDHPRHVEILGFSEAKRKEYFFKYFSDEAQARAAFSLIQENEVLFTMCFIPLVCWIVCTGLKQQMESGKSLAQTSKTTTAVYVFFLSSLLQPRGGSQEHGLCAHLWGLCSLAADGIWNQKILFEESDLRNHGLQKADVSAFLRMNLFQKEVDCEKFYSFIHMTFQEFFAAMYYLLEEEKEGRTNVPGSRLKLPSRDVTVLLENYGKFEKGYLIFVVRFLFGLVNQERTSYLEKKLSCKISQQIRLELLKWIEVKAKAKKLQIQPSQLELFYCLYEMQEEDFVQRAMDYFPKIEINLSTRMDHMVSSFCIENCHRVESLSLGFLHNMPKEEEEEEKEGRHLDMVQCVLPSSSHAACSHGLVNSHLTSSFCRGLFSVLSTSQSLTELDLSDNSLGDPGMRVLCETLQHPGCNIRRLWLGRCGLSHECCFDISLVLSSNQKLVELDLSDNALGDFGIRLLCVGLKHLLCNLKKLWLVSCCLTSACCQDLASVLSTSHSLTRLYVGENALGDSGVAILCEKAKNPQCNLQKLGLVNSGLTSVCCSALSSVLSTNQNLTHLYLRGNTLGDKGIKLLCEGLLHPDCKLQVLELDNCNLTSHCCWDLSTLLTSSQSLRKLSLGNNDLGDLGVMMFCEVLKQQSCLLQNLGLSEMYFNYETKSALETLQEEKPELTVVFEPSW

As to `COCCOc1cc(-c2ccc3c(c2NC(=O)NS(=O)(=O)c2ccn(C(C)C)n2)CCC3)ccn1` [Example 300, 1-Isopropyl-N-((5-(2-(2-methoxyethoxy)pyridin-4-yl)-2,3-dihydro-1H-inden-4-yl)carbamoyl)-1H-pyrazole-3-sulfonamide, sodium salt], the IC50 at NLRP3 [1] is at most 1000 nM; at NLRP3 [2] it was at most 500 nM.
With `O=C(Nc1c(-c2ccncc2)ccc2c1CCC2)NS(=O)(=O)c1ccn(C2CC2)n1` [Example 303, 1-Cyclopropyl-N-((5-(pyridin-4-yl)-2,3-dihydro-1H-inden-4-yl)carbamoyl)-1H-pyrazole-3-sulfonamide], the IC50 at NLRP3 [1] and at NLRP3 [2] was at most 500 nM throughout.
`O=C(Nc1c(-c2ccncc2)ccc2c1CCC2)NS(=O)(=O)c1ccn(C2CCC2)n1` [Example 304, 1-Cyclobutyl-N-((5-(pyridin-4-yl)-2,3-dihydro-1H-inden-4-yl)carbamoyl)-1H-pyrazole-3-sulfonamide]: the IC50 at NLRP3 [1] and at NLRP3 [2] was at most 500 nM each time.
As for `COc1cc(-c2ccc3c(c2NC(=O)NS(=O)(=O)c2nn(C4CC4)cc2F)CCC3)ccn1` [Example 305, 1-Cyclopropyl-4-fluoro-N-((5-(2-methoxypyridin-4-yl)-2,3-dihydro-1H-inden-4-yl)carbamoyl)-1H-pyrazole-3-sulfonamide], the IC50 at NLRP3 [1] and at NLRP3 [2] was at most 500 nM in each case.
Consider `COc1cc(-c2ccc3c(c2NC(=O)NS(=O)(=O)c2ccn(C(C)(C)CN4CC(F)(F)C4)n2)CCC3)ccn1` [Example 306, 1-(1-(3,3-Difluoroazetidin-1-yl)-2-methylpropan-2-yl)-N-((5-(2-methoxypyridin-4-yl)-2,3-dihydro-1H-inden-4-yl)carbamoyl)-1H-pyrazole-3-sulfonamide], for which the IC50 at NLRP3 [1] and on NLRP3 [2] was at most 500 nM each time.
Regarding `COc1cc(-c2ccc3c(c2NC(=O)NS(=O)(=O)c2ccn(C(C)(C)CN4CC(F)C4)n2)CCO3)ccn1` [Example 307, 1-(1-(3-Fluoroazetidin-1-yl)-2-methylpropan-2-yl)-N-((5-(2-methoxypyridin-4-yl)-2,3-dihydrobenzofuran-4-yl)carbamoyl)-1H-pyrazole-3-sulfonamide], the IC50 on NLRP3 [1] and on NLRP3 [2] was at most 500 nM throughout.
Regarding `COc1cc(-c2ccc3c(c2NC(=O)NS(=O)(=O)c2ccc(C(=O)N(C)C)cc2)CCC3)ccn1` [Example 308, 4-(N-((5-(2Mmethoxypyridin-4-yl)-2,3-dihydro-1H-inden-4-yl)carbamoyl)sulfamoyl)-N,N-dimethylbenzamide, sodium salt], the results for the IC50 on NLRP3 [1] and at NLRP3 [2] were at most 1000 nM and at most 500 nM, respectively.
Taken in the same sequence, the figures for `[2H]C([2H])([2H])Oc1cc(-c2ccc3c(c2NC(=O)NS(=O)(=O)c2ccc(CN(C)C)cc2)CCC3)ccn1` [Example 310, 4-((Dimethylamino)methyl)-N-((5-(2-(methoxy-d3)pyridin-4-yl)-2,3-dihydro-1H-inden-4-yl)carbamoyl)benzenesulfonamide] were at most 500 nM and at most 500 nM.
The like results for `COc1cc(-c2ccc3c(c2NC(=O)NS(=O)(=O)c2ccc(CN(C)C)cc2)CCO3)ccn1` [Example 311, 4-((Dimethylamino)methyl)-N-((5-(2-methoxypyridin-4-yl)-2,3-dihydrobenzofuran-4-yl)carbamoyl)benzenesulfonamide] were, in that order, at most 500 nM and at most 500 nM.
With `COc1cc(-c2ccc3c(c2NC(=O)NS(=O)(=O)c2ccn(C4(CN5CCC5)CCC4)n2)CCC3)ccn1` [Example 312, 1-(1-(Azetidin-1-ylmethyl)cyclobutyl)-N-((5-(2-methoxypyridin-4-yl)-2,3-dihydro-1H-inden-4-yl)carbamoyl)-1H-pyrazole-3-sulfonamide], the IC50 at NLRP3 [1] and at NLRP3 [2] was at most 500 nM in each case.
As to `COc1cc(-c2ccc3c(c2NC(=O)NS(=O)(=O)c2ccc(CN(C)C)c(C4CC4)c2)CCC3)ccn1` [Example 313, 3-Cyclopropyl-4-((dimethylamino)methyl)-N-((5-(2-methoxypyridin-4-yl)-2,3-dihydro-1H-inden-4-yl)carbamoyl)benzenesulfonamide], the IC50 on NLRP3 [1] and at NLRP3 [2] was at most 500 nM throughout.
Consider `COc1cc(-c2c(C)cc3c(c2NC(=O)NS(=O)(=O)c2ccn(C4CC4)n2)CCC3)ccn1` [Example 314, 1-Cyclopropyl-N-((5-(2-methoxypyridin-4-yl)-6-methyl-2,3-dihydro-1H-inden-4-yl)carbamoyl)-1H-pyrazole-3-sulfonamide], for which the IC50 was at most 1000 nM on NLRP3 [1] and at most 500 nM at NLRP3 [2].
Take `CN1CCC(N(C)S(=O)(=O)NC(=O)Nc2c(-c3ccnc(C#N)c3)ccc3c2CCC3)C1` (stereo not shown) [Example 317, 3-(N-Methyl-N-(1-methylpyrrolidin-3-yl)sulfamoyl)-1-(5-(2-cyanopyridin-4-yl)-2,3-dihydro-1H-inden-4-yl)urea]: the IC50 at NLRP3 [1] and on NLRP3 [2] was at most 500 nM each time.
Take `CN1CCC2CN(S(=O)(=O)NC(=O)Nc3c(-c4ccnc(C#N)c4)ccc4c3CCC4)CC21` (stereo not shown) [Example 318, N-((5-(2-Cyanopyridin-4-yl)-2,3-dihydro-1H-inden-4-yl)carbamoyl)-1-methylhexahydropyrrolo[3,4-b]pyrrole-5(1H)-sulfonamide]: the figures for the IC50 at NLRP3 [1] and at NLRP3 [2] were at most 500 nM and at most 1000 nM, respectively.
The like results for `COc1cc(-c2ccc3c(c2NC(=O)NS(=O)(=O)N2CC4CCN(C)C4C2)CCC3)ccn1` (stereo not shown) [Example 320, N-((5-(2-Methoxypyridin-4-yl)-2,3-dihydro-1H-inden-4-yl)carbamoyl)-1-methylhexahydropyrrolo[3,4-b]pyrrole-5(1H)-sulfonamide, potassium salt] were, in that order, at most 500 nM and at most 500 nM.
The like results for `CN1CCCC1CN(C)S(=O)(=O)NC(=O)Nc1c(-c2ccnc(C#N)c2)ccc2c1CCC2` (stereo not shown) [Example 321, 3-(N-Methyl-N-((1-methylpyrrolidin-2-yl)methyl)sulfamoyl)-1-(5-(2-cyanopyridin-4-yl)-2,3-dihydro-1H-inden-4-yl)urea] were, in that order, at most 500 nM and at most 1000 nM.
For the molecule `CC(C)(O)c1coc(S(=O)(=O)NC(=O)Nc2c3c(nn2-c2ccncc2)CCC3)c1` [Example 323, 4-(2-Hydroxypropan-2-yl)-N-((2-(pyridin-4-yl)-2,4,5,6-tetrahydrocyclopenta[c]pyrazol-3-yl)carbamoyl)furan-2-sulfonamide], the IC50 at NLRP3 [1] was at most 500 nM; on NLRP3 [2] it was at most 5000 nM.

Values taken from US20200361895A1, “NOVEL SULFONAMIDE CARBOXAMIDE COMPOUNDS” (Inflazome Limited, priority 2017, published 2020).
